Measured values from patent US20190336519A1, “APPLICATION OF ALBIFLORIN AS INDOLEAMINE 2,3-DIOXYGENASE (IDO) INHIBITOR” (priority 2017, published 2019).
Entries after “also recorded” stand apart in the source; their conditions may differ.

Columns and labels:
[1] = test system: IL-6, TNF-α, CORT in mouse hippocampal tissue; test: ELISA of inflammatory factors and CORT in mouse hippocampal tissue after modeling with LPS; format: in vivo; settings: LPS mice, gavage 7 days
Experimental: (§1) The mice were randomly divided into 6 groups (16 for each group): Blank group, Model group, Fluoxetine hydrochloride (a positive drug) group (10 mg/kg), Low dose of albiflorin group (3.5 mg/kg), Medium dose of albiflorin group (7 mg/kg), and High dose of albiflorin group (14 mg/kg), and administered continuously by gavage for 7 days.
(§2) On the 7th day after administration, LPS was injected intraperitoneally (0.83 mg/kg) for modeling. At 16 h after the injection, the Open Field Test (OFT) was carried out; at 24 h after the injection, the Forced Swimming Test (FST) and Tail Suspension Test (TST) were carried out. Thereafter, the blood was taken by enucleating eyeball, and centrifuged to collect the plasma. After the mice were sacrificed, the hippocampal tissues were taken out and quickly frozen in liquid nitrogen, and stored at −80° C.
(§3) 2. Determination of the effects of albiflorin and the positive drug fluoxetine on the concentrations of inflammatory factors IL-6, TNF-α, and PGE2, and glucocorticoid CORT in the mouse plasma and hippocampal tissue.
(§4) The test data are shown in mean±SE, and originPro8.0 software was used for the statistical analysis of the data and plotting.
An ELISA assay was used to detect the levels of inflammatory factors IL-6, TNF-α and PGE2, and CORT in the mouse hippocampal tissue.

[2] = test system: melatonin receptors 1 (MT1); test: Western Blot of MT1 in hippocampal tissue of chronic unpredictable mild stress (CUMS) rats; format: in vivo, rat; settings: for MT1 (folds relative to Blank group): CUMS rat hippocampal tissue, Mean±SE
From the text: (§5) 1. […] Western Blot was used to detect the effects of albiflorin on IDO and MT1, and the results are found in FIG. 1:
(§6) Effects of albiflorin on indoleamine 2,3-dioxygenase (IDO) and melatonin receptors 1 (MT1) in the rat hippocampal tissue (Mean±SE)

IDO = target: T1, IDO (Mus musculus, UniProt P28776); test: Ratio of kynurenine/tryptophan (IDO activity) in mouse hippocampal tissue after modeling with LPS; format: in vivo; settings: LPS mice, gavage 7 days
T1 construct: ratio of kynurenine/tryptophan (KYN/TrP) in the mouse hippocampal tissue; from tissue; host or cells: mouse hippocampal tissue (LPS model)
Experimental: as §1, §2
3. Determination of the effects of albiflorin and fluoxetine on expression of IDO in the mouse hippocampal tissue.
as §4
The activity of IDO in the hippocampus was expressed through the levels of KYN and TrP and the ratio of KYN/TrP.

[3] = test system: IL-6, TNF-α, CORT in mouse plasma; test: Levels of inflammatory factors and CORT in mouse plasma after modeling with LPS; format: in vivo; settings: LPS mice, gavage 7 days
Experimental: as §1, §2, §3, §4

[4] = test system: indoleamine 2,3-dioxygenase (IDO); test: Western Blot of IDO in hippocampal tissue of chronic unpredictable mild stress (CUMS) rats; format: in vivo, rat; settings: for IDO (folds relative to Blank group): CUMS rat hippocampal tissue, Mean±SE
From the text: as §5, §6

[5] = test system: LPS-induced mouse inflammatory depression-like behaviors; test: Behavioral tests (Forced Swimming Test, Tail Suspension Test) in mice after modeling with LPS; format: in vivo; settings: High dose group (14 mg/kg), gavage 7 days, 24 h after LPS
Experimental: as §1
1. The behavioral tests: Forced Swimming Test (FST), Tail Suspension Test (TST) and Open Field Test (OFT)
as §2, §4

[6] = test system: tryptophan metabolic pathway (kynurenine-quinolinic acid / serotonin-melatonin); test: Tryptophan metabolites in hippocampus of CUMS rats; format: in vivo, rat; settings: after 7 days of administration (7 mg/kg, 14 mg/kg)
[7] = CUMS rat, after 7 days of administration (7 mg/day, 14 mg/day), P<0.01
[8] = medium and high doses (7, 14 mg/kg)

T1 sequence (P28776 whole entry): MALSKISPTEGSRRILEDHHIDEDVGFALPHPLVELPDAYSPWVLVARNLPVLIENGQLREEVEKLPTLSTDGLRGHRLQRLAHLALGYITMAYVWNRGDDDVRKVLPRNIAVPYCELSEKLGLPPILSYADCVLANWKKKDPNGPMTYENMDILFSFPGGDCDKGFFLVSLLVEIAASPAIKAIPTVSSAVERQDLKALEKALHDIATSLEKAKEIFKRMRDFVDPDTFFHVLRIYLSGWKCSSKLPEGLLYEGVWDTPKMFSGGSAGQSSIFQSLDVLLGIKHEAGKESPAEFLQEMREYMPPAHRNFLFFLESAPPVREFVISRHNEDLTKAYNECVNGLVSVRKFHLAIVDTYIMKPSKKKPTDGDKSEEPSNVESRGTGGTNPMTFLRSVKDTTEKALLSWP

For `C[C@]12C[C@@H](O)[C@@H]3C[C@@]1(O[C@@H]1O[C@H](CO)[C@@H](O)[C@H](O)[C@H]1O)[C@]3(COC(=O)c1ccccc1)C(=O)O2` [Albiflorin, albiflorin], the “level of IL-6 in the mouse hippocampal tissue compared with Model group” value ([1]; High dose group (14 mg/kg)) was “significantly decreased”, the “level of TNF-α in the mouse hippocampal tissue compared with Model group” value ([1]; High dose group (14 mg/kg)) was “significantly decreased” and the “level of CORT in the hippocampal tissue” value [1] was “substantially decreased”. For the same compound, the “MT1 (folds relative to Blank group)” value ([2]; 3.5 mg/kg) was 1.37 ± 0.013 folds relative to Blank group, the “MT1 (folds relative to Blank group)” value ([2]; 7 mg/kg) was 1.39 ± 0.0014 folds relative to Blank group and the “MT1 (folds relative to Blank group)” value ([2]; 14 mg/kg) was 1.39 ± 0.014 folds relative to Blank group. For the same compound, the “melatonin receptors 1 (MT1) in the rat hippocampus” value [2, 7] was “increased significantly”, the “activity of IDO in the mouse hippocampal tissue” value (IDO; High dose (14 mg/kg), 14 mg/kg) was “significantly inhibited; also recorded: decrease” and the “ratio of kynurenine/tryptophan (KYN/TrP) in the mouse hippocampal tissue compared with Model group” value (IDO; High dose group (14 mg/kg), P<0.05) was “decreased”. For the same compound, the “concentration of CORT in the mouse plasma” value [3] was “substantially decrease”, the “level of IL-6 in the mouse plasma” value [3, 8] was “substantially decreased” and the “level of TNF-α in the mouse plasma” value [3, 8] was “substantially decreased”. The “IDO (folds relative to Blank group)” value ([4]; 3.5 mg/kg) was 1.46 ± 0.014 folds relative to Blank group, the “IDO (folds relative to Blank group)” value ([4]; 7 mg/kg) was 1.02 ± 0.010 folds relative to Blank group and the “IDO (folds relative to Blank group)” value ([4]; 14 mg/kg) was 0.80 ± 0.008 folds relative to Blank group. For the same compound, the “IDO activity in the rat hippocampus” value [4, 7] was “significantly inhibited”, the “immobility time in the Tail Suspension Test compared with Model group” value [5] was “significant difference” and the “ratio of kynurenine to tryptophan (KYN/TrP)” value ([6]; CUMS rat hippocampus) was “downregulated significantly”. For the same compound, the “level of kynurenine in the rat hippocampus” value ([6]; CUMS rat, P<0.01) was “decreased significantly”, the “level of melatonin in the hippocampus” value ([6]; CUMS rat, P<0.01) was “increased significantly” and the “level of quinolinic acid in the rat hippocampus” value ([6]; CUMS rat, P<0.01) was “decreased significantly”. The “level of serotonin in the hippocampus” value ([6]; CUMS rat, P<0.01) was “increased significantly”.
For `CNCCC(Oc1ccc(C(F)(F)F)cc1)c1ccccc1` (stereo not shown) [Fluoxetine, fluoxetine, reference compound], the “MT1 (folds relative to Blank group)” value ([2]; 10 mg/kg) was 0.50 ± 0.005 folds relative to Blank group, the “LPS-induced activation/overexpression of IDO in the hippocampus compared with Model group” value (IDO; 10 mg/kg) was “failed to be corrected” and the “IDO (folds relative to Blank group)” value ([4]; 10 mg/kg) was 1.29 ± 0.014 folds relative to Blank group.
